# Results: paper PMC13600695, “Identifying a novel mechanism of L-leucine uptake in Mycobacterium tuberculosis using a chemical genomic approach” (eLife, 2026)
# pKd: −log10 of the molar value.
# Molecular target: PpsB (6x His-PpsB) (Mycobacterium tuberculosis, UniProt P9WQE5)
# Test: biochemical
# Sequence of PpsB (6x His-PpsB) (P9WQE5 whole entry): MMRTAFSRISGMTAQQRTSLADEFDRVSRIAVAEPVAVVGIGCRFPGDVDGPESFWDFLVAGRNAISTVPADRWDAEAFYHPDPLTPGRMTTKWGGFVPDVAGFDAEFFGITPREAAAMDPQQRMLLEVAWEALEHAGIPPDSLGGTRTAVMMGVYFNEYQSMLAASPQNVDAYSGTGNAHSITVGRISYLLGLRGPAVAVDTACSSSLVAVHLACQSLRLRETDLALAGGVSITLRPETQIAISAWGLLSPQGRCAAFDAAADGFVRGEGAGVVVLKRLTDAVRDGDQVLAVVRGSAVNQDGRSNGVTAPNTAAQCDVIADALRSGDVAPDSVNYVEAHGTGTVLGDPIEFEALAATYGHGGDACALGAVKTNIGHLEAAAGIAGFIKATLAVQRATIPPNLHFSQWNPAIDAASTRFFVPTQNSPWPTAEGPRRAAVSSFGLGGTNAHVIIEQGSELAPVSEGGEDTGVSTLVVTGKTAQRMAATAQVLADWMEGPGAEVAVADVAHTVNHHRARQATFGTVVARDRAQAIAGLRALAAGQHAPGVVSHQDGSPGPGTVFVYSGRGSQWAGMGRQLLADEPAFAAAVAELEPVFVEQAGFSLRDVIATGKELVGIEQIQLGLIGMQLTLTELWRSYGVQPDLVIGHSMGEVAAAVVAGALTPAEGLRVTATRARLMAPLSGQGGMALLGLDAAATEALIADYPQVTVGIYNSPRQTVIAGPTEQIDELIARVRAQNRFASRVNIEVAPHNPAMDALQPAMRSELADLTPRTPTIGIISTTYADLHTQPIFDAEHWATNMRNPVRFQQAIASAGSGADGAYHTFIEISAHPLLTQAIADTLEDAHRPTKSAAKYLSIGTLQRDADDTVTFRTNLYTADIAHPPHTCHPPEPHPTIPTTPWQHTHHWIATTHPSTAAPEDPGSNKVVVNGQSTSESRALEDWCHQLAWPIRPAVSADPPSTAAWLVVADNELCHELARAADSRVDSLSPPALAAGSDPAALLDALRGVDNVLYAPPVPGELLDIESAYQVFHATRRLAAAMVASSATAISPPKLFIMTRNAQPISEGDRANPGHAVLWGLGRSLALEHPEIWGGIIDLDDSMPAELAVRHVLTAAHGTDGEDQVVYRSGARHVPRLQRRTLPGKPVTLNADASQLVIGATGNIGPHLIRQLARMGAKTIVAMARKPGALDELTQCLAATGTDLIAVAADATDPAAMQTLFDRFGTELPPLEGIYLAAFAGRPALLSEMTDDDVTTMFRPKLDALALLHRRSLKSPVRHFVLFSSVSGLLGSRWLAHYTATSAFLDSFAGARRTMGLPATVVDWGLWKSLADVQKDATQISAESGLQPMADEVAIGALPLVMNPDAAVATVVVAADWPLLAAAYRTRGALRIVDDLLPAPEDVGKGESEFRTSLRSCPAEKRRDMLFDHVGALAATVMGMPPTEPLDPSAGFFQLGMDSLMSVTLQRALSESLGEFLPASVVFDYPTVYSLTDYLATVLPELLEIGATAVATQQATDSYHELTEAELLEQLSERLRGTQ
smiles,measurement,value
C/C(=N\NC(=N)N)c1cc(NC(=O)CCCCCCCCC(=O)Nc2cc(/C(C)=N/NC(=N)N)cc(/C(C)=N/NC(=N)N)c2)cc(/C(C)=N/NC(=N)N)c1 [semapimod],pKd,6.96
